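Five concentrations, 48 hours, 96-well plates. TGI: concentration producing complete growth inhibition.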
Tests used:
Assay in all cases: NCI anticancer screen, dose series, 48 h
[1] = tested on: 786-0 renal
[2] = tested on: A549 NSCLC
[3] = tested on: ACHN renal
[4] = tested on: CAKI-1 renal
[5] = tested on: CCRF-CEM leukemia
[6] = tested on: COLO 205 colon
[7] = tested on: EKVX NSCLC
[8] = tested on: HCT-116 colon
[9] = tested on: HCT-15 colon
[10] = tested on: HL-60(TB) leukemia
[11] = tested on: HOP-62 NSCLC
[12] = tested on: HOP-92 NSCLC
[13] = tested on: HS 578T breast
[14] = tested on: HT29 colon
[15] = tested on: IGROV1 ovarian
[16] = tested on: K-562 leukemia
[17] = tested on: KM12 colon
[18] = tested on: LOX IMVI melanoma
[19] = tested on: M14 melanoma
[20] = tested on: MALME-3M melanoma
[21] = tested on: MCF7 breast
[22] = tested on: MDA-MB-435
[23] = tested on: MDA-N
[24] = tested on: MOLT-4 leukemia
[25] = tested on: NCI-H226 lung
[26] = tested on: NCI-H23 lung
[27] = tested on: NCI-H460 lung
[28] = tested on: NCI-H522 lung
[29] = tested on: NCI/ADR-RES ovarian
[30] = tested on: OVCAR-3 ovarian
[31] = tested on: OVCAR-4 ovarian
[32] = tested on: OVCAR-5 ovarian
[33] = tested on: OVCAR-8 ovarian
[34] = tested on: PC-3 prostate
[35] = tested on: RPMI-8226 leukemia
[36] = tested on: SF-268 CNS
[37] = tested on: SF-295 CNS
[38] = tested on: SK-MEL-2 melanoma
[39] = tested on: SK-MEL-28 melanoma
[40] = tested on: SK-MEL-5 melanoma
[41] = tested on: SK-OV-3 ovarian
[42] = tested on: SN12C renal
[43] = tested on: SNB-19 CNS
[44] = tested on: SNB-75 CNS
[45] = tested on: SR leukemia
[46] = tested on: SW-620 colon
[47] = tested on: T-47D breast
[48] = tested on: TK-10 renal
[49] = tested on: U251 CNS
[50] = tested on: UACC-257 melanoma
[51] = tested on: UACC-62 melanoma
[52] = tested on: UO-31 renal
[53] = tested on: A498 renal
[54] = tested on: DU-145 prostate
[55] = tested on: HCC-2998 colon
[56] = tested on: RXF 393 renal
[57] = tested on: SF-539 CNS
[58] = tested on: BT-549 breast
[59] = tested on: MDA-MB-231 breast

Measured: TGI

N#CCSc1c(-c2ccccc2)c(=O)n(-c2ccccc2)c(=S)n1-c1ccccc1
> 100 µM: [1] | [2] | [3] | [4] | [5] | [6] | [7] | [8] | [9] | [10] | [11] | [12] | [13] | [14] | [15] | [16] | [17] | [18] | [19] | [20] | [21] | [22] | [23] | [24] | [25] | [26] | [27] | [28] | [29] | [30] | [31] | [32] | [33] | [34] | [35] | [36] | [37] | [38] | [39] | [40] | [41] | [42] | [43] | [44] | [45] | [46] | [47] | [48] | [49] | [50] | [51] | [52]

CNc1ncnc2c1nnn2C
> 100 µM: [1] | [53] | [2] | [3] | [4] | [5] | [6] | [54] | [7] | [55] | [8] | [9] | [10] | [11] | [12] | [14] | [15] | [16] | [17] | [18] | [19] | [20] | [21] | [22] | [23] | [24] | [25] | [26] | [28] | [29] | [30] | [31] | [33] | [34] | [35] | [56] | [37] | [57] | [38] | [39] | [40] | [41] | [42] | [43] | [44] | [46] | [47] | [48] | [49] | [50] | [51] | [52]

COC12OC3CC4(C)C(=CC3OC(OC(C)C1O)C2O)CCC1C4CCC2(C)C(c3ccc(=O)oc3)CCC12O (configuration not stated)
0.0347 µM: [12]
0.00553 µM: [9]
0.00224 µM: [27]
0.00792 µM: [59]
0.00472 µM: [51]
0.0144 µM: [53]
0.00195 µM: [1]
< 0.001 µM: [7] | [24] | [28]
0.00457 µM: [52]
0.00639 µM: [30]
0.00208 µM: [5]
0.00277 µM: [14] | [49]
0.00258 µM: [29]
0.00153 µM: [42]
0.00291 µM: [45]
0.0434 µM: [39]
0.00432 µM: [21]
0.00449 µM: [3]
0.00455 µM: [43]
0.0117 µM: [50]
0.0116 µM: [56]
0.00564 µM: [22]
0.00434 µM: [23]
0.00327 µM: [32]
0.00199 µM: [31]
0.00718 µM: [16]
0.00849 µM: [4]
0.00171 µM: [40]
0.00215 µM: [10]
0.00389 µM: [15]
0.00216 µM: [48]
0.0782 µM: [47]
0.00281 µM: [18]
0.00166 µM: [2]
0.00318 µM: [33]
0.00413 µM: [58]
0.00193 µM: [8]
0.00311 µM: [11]
0.00167 µM: [57]
0.00157 µM: [36]
0.00676 µM: [25]
0.00739 µM: [17]
0.00391 µM: [20]
0.00731 µM: [46]
0.00209 µM: [54]
0.00448 µM: [38]
0.272 µM: [41]
0.00497 µM: [19]
0.447 µM: [37]
0.00214 µM: [34]
0.00945 µM: [55]
0.00571 µM: [44]
0.00177 µM: [26]
0.00409 µM: [35]

CC1(C)O[C@H]2OC(CO)C(OS(C)(=O)=O)[C@H]2O1 (some centres not stated)
> 100 µM: [1] | [53] | [2] | [3] | [4] | [5] | [6] | [54] | [7] | [55] | [8] | [9] | [10] | [11] | [12] | [13] | [14] | [15] | [17] | [18] | [19] | [20] | [21] | [59] | [22] | [23] | [26] | [27] | [28] | [29] | [30] | [32] | [33] | [34] | [35] | [36] | [37] | [57] | [38] | [39] | [40] | [42] | [43] | [44] | [46] | [47] | [48] | [49] | [50] | [51] | [52]
